EP4596574A1, “GLP-1/GCG/GIP TRIPLE-RECEPTOR AGONIST AND USE THEREOF” (Sunshine Lake Pharma Co., Ltd., priority 2022, dated 2024)
Starred links: 1 amine or outer side, 2 acyl side, 3 side chain; linkers in the order of their positions; H or OH if unused. Non-standard residues stand in square brackets, D forms with d. Residues, ends and D or L forms follow the SMILES beside them. Groups on a side chain read outwards from the residue. *: point of attachment. C20 diacid = O=C(O)CCCCCCCCCCCCCCCCCCC(=O)*; αMePhe(2-F) = C[C@](N)(Cc1ccccc1F)C(=O)O; γGlu = O=C(O)[C@H](CCC(=O)[*:2])N[*:1]; AEEA = NCCOCCOCC(=O)O; Aib = CC(C)(N)C(=O)O

Key:
Assay type in all cases: cell-based
GLP-1R = target: T1, GLP-1R (Homo sapiens, UniProt P43220); assay: In vitro cell activity, cAMP production in HEK293 cells expressing GLP-1R; conditions: HEK293-GLP-1R cells, cAMP; read-out: GLP-1R (EC50)
T1 construct: expressed in transfected cells; host or cells: HEK293 (HEK293-GLP-1R)
Description: (§1) After they were completely thawed within 1.5 minutes, the cells were added dropwise into a 15 mL centrifuge tube containing 8 mL of warm culture medium in a clean bench. The tubes were centrifuged at 900 rpm for 5 minutes, the supernatant was discarded, and the cells were resuspended in 1 mL of complete culture medium (by pipetting 15 times). 20 µL of the suspension was immediately taken and mixed with an equal volume of trypan blue. 20 µL was taken to count the number of live cells, and the cells were diluted to 4×10^5 cells/mL with complete culture medium. • 4) The 384-well plate was divided into GLP-1R cell, GCGR cell and GIPR cell areas. The cell suspension was added to the wells of the corresponding area at 5 µL per well using a 12-channel variable-channel adjustable dispenser. […] Then, the diluted cAMP-d2 working solution and anti-cAMP-crytate working solution were mixed evenly in a ratio of 1:1, and 10 µL was added to each well of the sample group. The wells were covered with white lids and placed at room temperature in the dark for 1 hour or at 4 °C overnight. • 6) The fluorescence values at 665 nm and 620 nm were detected in a multifunctional microplate reader. In GraphPad Prism 6, the signal ratio and sample concentration were nonlinearly fitted using a four-parameter equation to obtain the EC50 value.

GCGR = target: T2, GCGR (Homo sapiens, UniProt P47871); assay: In vitro cell activity, cAMP production in HEK293 cells expressing GCGR; conditions: HEK293-GCGR cells, cAMP; read-out: GCGR (EC50)
T2 construct: expressed in transfected cells; host or cells: HEK293 (HEK293-GCGR)
Description: as §1

GIPR = target: T3, GIPR (Homo sapiens, UniProt P48546); assay: In vitro cell activity, cAMP production in HEK293 cells expressing GIPR; conditions: HEK293-GIPR cells, cAMP; read-out: GIPR (EC50)
T3 construct: expressed in transfected cells; host or cells: HEK293 (HEK293-GIPR)
T3 sequence (P48546 22-466): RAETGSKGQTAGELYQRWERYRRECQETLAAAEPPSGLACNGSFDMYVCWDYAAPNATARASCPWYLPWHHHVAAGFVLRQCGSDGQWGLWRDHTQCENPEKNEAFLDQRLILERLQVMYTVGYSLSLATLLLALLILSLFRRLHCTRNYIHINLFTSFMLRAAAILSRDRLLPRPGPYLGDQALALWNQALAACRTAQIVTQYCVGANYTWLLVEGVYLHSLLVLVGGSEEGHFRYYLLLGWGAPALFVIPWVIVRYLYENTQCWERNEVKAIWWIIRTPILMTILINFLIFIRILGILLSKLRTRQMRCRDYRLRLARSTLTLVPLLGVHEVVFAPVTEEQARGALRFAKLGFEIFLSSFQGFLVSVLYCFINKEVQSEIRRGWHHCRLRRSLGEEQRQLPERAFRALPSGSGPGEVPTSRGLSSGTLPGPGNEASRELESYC
Description: as §1, with “The wells were covered with white lids and placed at room temperature in the dark for 1 hour or at 4 °C overnight. • 6) The fluorescence values at 665 nm and 620 nm were detected in a multifunctional microplate reader.” left out

T1 sequence (P43220 24-463, species assumed): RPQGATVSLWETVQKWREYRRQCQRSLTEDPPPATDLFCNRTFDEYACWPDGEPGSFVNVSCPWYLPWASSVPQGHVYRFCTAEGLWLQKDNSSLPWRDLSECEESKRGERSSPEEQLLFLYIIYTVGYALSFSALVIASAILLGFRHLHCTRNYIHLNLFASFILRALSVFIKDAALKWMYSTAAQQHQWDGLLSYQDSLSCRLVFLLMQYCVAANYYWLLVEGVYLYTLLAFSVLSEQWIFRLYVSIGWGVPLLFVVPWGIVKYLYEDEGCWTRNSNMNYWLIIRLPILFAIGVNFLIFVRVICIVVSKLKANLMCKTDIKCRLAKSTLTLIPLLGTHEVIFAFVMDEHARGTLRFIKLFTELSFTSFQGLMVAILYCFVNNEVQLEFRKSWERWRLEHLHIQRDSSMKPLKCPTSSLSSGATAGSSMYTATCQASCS
T2 sequence (P47871 26-477, species assumed): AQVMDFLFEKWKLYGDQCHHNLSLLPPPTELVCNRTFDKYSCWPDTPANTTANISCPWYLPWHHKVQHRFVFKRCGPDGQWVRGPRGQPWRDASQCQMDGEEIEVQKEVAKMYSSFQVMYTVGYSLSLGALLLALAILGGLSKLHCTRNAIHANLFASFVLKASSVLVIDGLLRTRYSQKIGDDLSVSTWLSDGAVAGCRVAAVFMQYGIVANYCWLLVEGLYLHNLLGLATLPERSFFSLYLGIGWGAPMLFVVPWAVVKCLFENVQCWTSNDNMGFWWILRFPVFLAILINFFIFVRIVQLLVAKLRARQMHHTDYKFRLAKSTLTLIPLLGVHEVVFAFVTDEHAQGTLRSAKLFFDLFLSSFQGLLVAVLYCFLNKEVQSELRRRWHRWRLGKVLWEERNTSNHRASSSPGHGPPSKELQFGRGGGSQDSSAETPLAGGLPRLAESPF

Structure (SMILES)	EC50 (GLP-1R) [nM]	EC50 (GCGR) [nM]	EC50 (GIPR) [nM]
CC[C@H](C)[C@H](NC(=O)[C@H](Cc1ccccc1)NC(=O)[C@H](CC(=O)O)NC(=O)[C@H](CCCNC(=N)N)NC(=O)[C@H](CCC(N)=O)NC(=O)[C@H](C)NC(=O)[C@H](CCCCNC(=O)COCCOCCNC(=O)CC[C@H](NC(=O)CCCCCCCCCCCCCCCCCCC(=O)O)C(=O)O)NC(=O)[C@H](CCC(=O)O)NC(=O)[C@H](CC(=O)O)NC(=O)[C@H](CC(C)C)NC(=O)[C@H](CC(C)C)NC(=O)[C@@H](NC(=O)[C@H](CO)NC(=O)[C@H](Cc1ccc(O)cc1)NC(=O)[C@H](CC(=O)O)NC(=O)[C@H](CO)NC(=O)[C@@H](NC(=O)[C@](C)(Cc1ccccc1F)NC(=O)[C@@H](NC(=O)CNC(=O)[C@H](CCC(N)=O)NC(=O)C(C)(C)NC(=O)[C@@H](N)Cc1ccc(O)cc1)[C@@H](C)O)[C@@H](C)O)[C@@H](C)CC)C(=O)N[C@@H](CCC(=O)O)C(=O)N[C@@H](Cc1c[nH]c2ccccc12)C(=O)N[C@@H](CC(C)C)C(=O)N[C@@H](CC(C)C)C(=O)N[C@@H](CCC(=O)O)C(=O)NCC(=O)NCC(=O)N1CCC[C@H]1C(=O)N[C@@H](CO)C(=O)N[C@@H](CO)C(=O)NCC(=O)N[C@@H](C)C(=O)N1CCC[C@H]1C(=O)N1CCC[C@H]1C(=O)N1CCC[C@H]1C(=O)N[C@@H](CO)C(=O)O [HEC-PT64]	0.6	3.57	0.248
CC[C@H](C)[C@H](NC(=O)[C@H](Cc1ccccc1)NC(=O)[C@H](CC(=O)O)NC(=O)[C@H](CCCNC(=N)N)NC(=O)[C@H](CCC(N)=O)NC(=O)[C@H](C)NC(=O)[C@H](CCCCNC(=O)COCCOCCNC(=O)CC[C@H](NC(=O)CCCCCCCCCCCCCCCCCCC(=O)O)C(=O)O)NC(=O)[C@H](CCC(=O)O)NC(=O)[C@H](CC(=O)O)NC(=O)[C@H](CC(C)C)NC(=O)[C@H](CC(C)C)NC(=O)[C@@H](NC(=O)[C@H](CO)NC(=O)[C@H](Cc1ccc(O)cc1)NC(=O)[C@H](CC(=O)O)NC(=O)[C@H](CO)NC(=O)[C@@H](NC(=O)[C@](C)(Cc1ccccc1F)NC(=O)[C@@H](NC(=O)CNC(=O)[C@H](Cc1c[nH]cn1)NC(=O)C(C)(C)NC(=O)[C@@H](N)Cc1ccc(O)cc1)[C@@H](C)O)[C@@H](C)O)[C@@H](C)CC)C(=O)N[C@@H](CCC(=O)O)C(=O)N[C@@H](Cc1c[nH]c2ccccc12)C(=O)N[C@@H](CC(C)C)C(=O)N[C@@H](CC(C)C)C(=O)N[C@@H](C)C(=O)NCC(=O)NCC(=O)N1CCC[C@H]1C(=O)N[C@@H](CO)C(=O)N[C@@H](CO)C(=O)NCC(=O)N[C@@H](C)C(=O)N1CCC[C@H]1C(=O)N1CCC[C@H]1C(=O)N1CCC[C@H]1C(=O)N[C@@H](CO)C(=O)O [HEC-PT65]	0.624	1.36	0.157
CC[C@H](C)[C@H](NC(=O)[C@H](CCC(=O)O)NC(=O)[C@H](CC(=O)O)NC(=O)[C@H](CC(C)C)NC(=O)[C@H](CC(C)C)NC(=O)[C@@H](NC(=O)[C@H](CO)NC(=O)[C@H](Cc1ccc(O)cc1)NC(=O)[C@H](CC(=O)O)NC(=O)[C@H](CO)NC(=O)[C@@H](NC(=O)[C@](C)(Cc1ccccc1F)NC(=O)[C@@H](NC(=O)CNC(=O)[C@H](Cc1c[nH]cn1)NC(=O)C(C)(C)NC(=O)[C@@H](N)Cc1ccc(O)cc1)[C@@H](C)O)[C@@H](C)O)[C@@H](C)CC)C(=O)N[C@@H](C)C(=O)N[C@@H](CCC(N)=O)C(=O)N[C@@H](CCCCNC(=O)COCCOCCNC(=O)COCCOCCNC(=O)CC[C@H](NC(=O)CCCCCCCCCCCCCCCCCCC(=O)O)C(=O)O)C(=O)N[C@@H](CC(=O)O)C(=O)N[C@@H](Cc1ccccc1)C(=O)N[C@H](C(=O)N[C@@H](CCC(=O)O)C(=O)N[C@@H](Cc1c[nH]c2ccccc12)C(=O)N[C@@H](CC(C)C)C(=O)N[C@@H](CC(C)C)C(=O)N[C@@H](CCC(=O)O)C(=O)NCC(=O)NCC(=O)N1CCC[C@H]1C(=O)N[C@@H](CO)C(=O)N[C@@H](CO)C(=O)NCC(=O)N[C@@H](C)C(=O)N1CCC[C@H]1C(=O)N1CCC[C@H]1C(=O)N1CCC[C@H]1C(=O)N[C@@H](CO)C(=O)O)[C@@H](C)CC [HEC-PT66] (H-Y[Aib]HGT[αMePhe(2-F)]TSDYSILLDEIAQK([AEEA-AEEA-γGlu-C20 diacid])DFIEWLLEGGPSSGAPPPS-OH)	7.14	12.3	0.213
